IC50 and MIC data for four molecules are collected here from patent US10183943B2, “Heterocyclic compounds and their use in preventing or treating bacterial infections” (MUTABILIS, priority 2015, dated 2019).

One assay addresses T1, OXA-15 (Pseudomonas aeruginosa, UniProt Q51574).
T1 construct: made in house; host or cells: E. coli
Nature of the assay: biochemical.

For another assay, the target named is T2, KPC-2 (Klebsiella pneumoniae, UniProt Q9F663).
T2 construct: made in house; host or cells: E. coli
Nature of the assay: β-lactamase inhibitory activity, determination of IC50 (nitrocefin hydrolysis). To be noted: class (A); nitrocefin 200 μM, 30 min pre-incubation; read-out: IC50 β-lactamase KPC-2. The class given is biochemical.

The next assay addresses AmpC (P99) (Enterobacter cloacae, UniProt P05364). Described as above.
The test system of assay [1] is P. aeruginosa CIP107051 (TEM-24). Nature of the assay: MIC of compounds alone, broth microdilution. The class given is cell-based. Particulars: Pseudomonas aeruginosa; strain CIP107051 (P. aeruginosa); read-out: MIC compounds of the invention alone. A digest of the protocol:
(§1)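 Broth microdilution per CLSI M7-A7: compounds alone, in DMSO, challenged with log-phase bacteria at 5×10^5 cfu/mL in cation-adjusted Mueller-Hinton broth. Plates incubated 16-20 h at 35° C in ambient air; MIC is the lowest concentration preventing visible growth.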
(In broth dilution the organism is exposed to a series of concentrations in liquid medium.)

Assay [2] has as its system E. coli 190317 (TEM-1, SHV-12, CTX-M-15, OXA-1). Nature of the assay: MIC of compounds alone, broth microdilution. The class given is cell-based. Particulars: Escherichia coli, read-out: MIC compounds of the invention alone. Put shortly: as §1
Assay [3] relates to K. pneumoniae BAA-1898 (TEM-1, SHV-11, SHV-12, KPC-2). Nature of the assay: MIC of compounds alone, broth microdilution. The class given is cell-based. Particulars: Klebsiella pneumoniae, BAA1898; strain BAA-1898 (K. pneumoniae); read-out: MIC compounds of the invention alone. A digest of the protocol:
as §1

Another assay deals with E. cloacae P99 (AmpC). Put plainly: MIC of compounds alone, broth microdilution. The class given is cell-based. To be noted: Enterobacter cloacae; strain P99 (E. cloacae); read-out: MIC compounds of the invention alone. Put shortly: as §1
The test system of assay [4] is K. pneumoniae 6299 (TEM-1, SHV-11, OXA-163). Put plainly: MIC of compounds alone, broth microdilution. The class given is cell-based. Particulars: Klebsiella pneumoniae; strain 6299 (K. pneumoniae); read-out: MIC compounds of the invention alone. Put shortly: as §1
The test system of assay [5] is E. coli 131119 (TEM-1, OXA-48). Put plainly: MIC of compounds alone, broth microdilution. Format: cell-based. To be noted: Escherichia coli; strain 131119 (E. coli); read-out: MIC compounds of the invention alone. A digest of the protocol:
as §1

A further assay concerns E. coli RGN238 (OXA-1). Put plainly: MIC of compounds alone, broth microdilution. Format: cell-based. To be noted: Escherichia coli; strain RGN238 (E. coli); read-out: MIC compounds of the invention alone. A digest of the protocol:
as §1

Another assay addresses T3, OXA-48 (Klebsiella pneumoniae, UniProt Q6XEC0).
T3 construct: made in house; host or cells: E. coli
Put plainly: β-lactamase inhibitory activity, determination of IC50 (nitrocefin hydrolysis). Particulars: class (D); nitrocefin 200 μM, 30 min pre-incubation; read-out: IC50 β-lactamase OXA-48. The class given is biochemical.

The target of another assay is T4, OXA-11 (Pseudomonas aeruginosa, UniProt Q06778).
T4 construct: made in house; host or cells: E. coli
The assay is described as above. The class given is biochemical.

For the next assay, the target named is AmpC P. aeruginosa (Pseudomonas aeruginosa, UniProt P24735). The description is as above.
The next assay deals with T5, CTX-M-15 (Escherichia coli, UniProt Q9EXV5).
T5 construct: made in house; host or cells: E. coli
Described as above. The class given is biochemical. To be noted: class (A); nitrocefin 200 μM, 30 min pre-incubation; read-out: IC50 β-lactamase CTX-M-15.

In another assay the target is T6, TEM-1 (Escherichia coli, UniProt P62593).
T6 construct: made in house; host or cells: E. coli
Described as above. The class given is biochemical.

Another assay has as its target T7, OXA-1 (Escherichia coli, UniProt P13661).
T7 construct: made in house; host or cells: E. coli
The description is as above. The class given is biochemical. To be noted: class (D); nitrocefin 200 μM, 30 min pre-incubation; read-out: IC50 β-lactamase OXA-1.

Another assay has as its target T8, SHV-1 (Klebsiella pneumoniae, UniProt P0AD64).
T8 construct: made in house; host or cells: E. coli
The description is as above. The class given is biochemical.

A value given as a limit tells only on which side of the number the result lay.

T1 sequence (Q51574 22-275): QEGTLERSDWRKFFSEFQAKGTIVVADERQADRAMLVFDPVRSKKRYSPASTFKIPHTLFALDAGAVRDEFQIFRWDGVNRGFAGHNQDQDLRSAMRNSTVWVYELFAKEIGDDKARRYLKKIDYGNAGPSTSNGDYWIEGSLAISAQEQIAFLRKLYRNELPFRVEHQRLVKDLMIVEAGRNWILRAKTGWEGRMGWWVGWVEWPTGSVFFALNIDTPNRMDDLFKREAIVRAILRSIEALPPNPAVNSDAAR
T4 sequence (Q06778 21-266): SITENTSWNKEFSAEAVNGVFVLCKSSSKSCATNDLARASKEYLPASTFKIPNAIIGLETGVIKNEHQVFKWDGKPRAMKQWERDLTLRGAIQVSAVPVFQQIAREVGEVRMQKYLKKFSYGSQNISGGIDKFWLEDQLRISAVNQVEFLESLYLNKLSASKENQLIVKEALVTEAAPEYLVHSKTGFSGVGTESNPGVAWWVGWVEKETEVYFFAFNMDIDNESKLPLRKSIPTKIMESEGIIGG
T3 sequence (Q6XEC0 23-265 limits assumed): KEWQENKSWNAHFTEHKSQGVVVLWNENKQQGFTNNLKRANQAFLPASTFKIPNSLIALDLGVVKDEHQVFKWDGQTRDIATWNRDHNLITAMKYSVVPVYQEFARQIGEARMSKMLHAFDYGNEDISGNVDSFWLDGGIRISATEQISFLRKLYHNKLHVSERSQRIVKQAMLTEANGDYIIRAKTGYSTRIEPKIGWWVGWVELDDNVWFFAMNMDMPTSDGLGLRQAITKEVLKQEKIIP
T7 sequence (P13661 26-276): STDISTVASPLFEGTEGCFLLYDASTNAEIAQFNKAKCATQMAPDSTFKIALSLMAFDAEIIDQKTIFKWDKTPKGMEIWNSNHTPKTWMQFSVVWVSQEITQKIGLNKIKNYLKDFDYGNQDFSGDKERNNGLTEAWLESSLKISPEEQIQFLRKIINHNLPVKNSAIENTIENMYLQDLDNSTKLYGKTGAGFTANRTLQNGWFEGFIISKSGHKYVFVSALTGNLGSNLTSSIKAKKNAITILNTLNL
T2 sequence (Q9F663 25-293 limits assumed): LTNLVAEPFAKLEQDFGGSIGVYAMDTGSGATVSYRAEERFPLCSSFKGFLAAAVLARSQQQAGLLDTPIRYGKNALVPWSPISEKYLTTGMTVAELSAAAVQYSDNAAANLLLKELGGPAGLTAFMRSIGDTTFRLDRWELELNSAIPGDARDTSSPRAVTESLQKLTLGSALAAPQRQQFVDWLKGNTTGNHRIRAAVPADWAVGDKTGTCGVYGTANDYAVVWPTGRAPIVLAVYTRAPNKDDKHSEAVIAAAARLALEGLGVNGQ
AmpC (P99), sequence (P05364 21-381): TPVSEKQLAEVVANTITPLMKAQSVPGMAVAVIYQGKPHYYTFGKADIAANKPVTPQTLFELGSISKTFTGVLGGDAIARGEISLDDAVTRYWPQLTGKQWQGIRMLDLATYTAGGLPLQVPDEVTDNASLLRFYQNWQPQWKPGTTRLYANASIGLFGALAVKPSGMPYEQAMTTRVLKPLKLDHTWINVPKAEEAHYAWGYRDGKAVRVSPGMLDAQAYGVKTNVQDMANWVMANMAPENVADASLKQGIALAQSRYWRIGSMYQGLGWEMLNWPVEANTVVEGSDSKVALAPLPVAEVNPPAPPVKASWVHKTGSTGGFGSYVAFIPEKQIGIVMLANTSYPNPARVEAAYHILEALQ
AmpC P. aeruginosa, sequence (P24735 27-397): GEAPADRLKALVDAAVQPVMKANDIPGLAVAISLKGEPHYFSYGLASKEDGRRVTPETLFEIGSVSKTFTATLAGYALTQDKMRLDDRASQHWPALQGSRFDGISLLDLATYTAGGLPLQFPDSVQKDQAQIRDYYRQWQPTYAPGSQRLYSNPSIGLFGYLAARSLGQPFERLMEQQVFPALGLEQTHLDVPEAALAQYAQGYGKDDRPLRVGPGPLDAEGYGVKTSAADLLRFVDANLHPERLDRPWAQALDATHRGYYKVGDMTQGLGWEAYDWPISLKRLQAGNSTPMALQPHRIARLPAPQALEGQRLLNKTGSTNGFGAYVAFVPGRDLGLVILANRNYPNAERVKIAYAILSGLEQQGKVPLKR
T8 sequence (P0AD64 22-286): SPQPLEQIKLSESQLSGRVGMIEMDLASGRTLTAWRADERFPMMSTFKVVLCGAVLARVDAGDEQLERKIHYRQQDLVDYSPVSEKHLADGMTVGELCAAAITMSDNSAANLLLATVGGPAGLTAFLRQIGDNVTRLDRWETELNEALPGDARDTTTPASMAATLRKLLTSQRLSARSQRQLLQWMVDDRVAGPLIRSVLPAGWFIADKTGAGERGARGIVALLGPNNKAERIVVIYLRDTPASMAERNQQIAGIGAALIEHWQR
T6 sequence (P62593 24-286 limits assumed): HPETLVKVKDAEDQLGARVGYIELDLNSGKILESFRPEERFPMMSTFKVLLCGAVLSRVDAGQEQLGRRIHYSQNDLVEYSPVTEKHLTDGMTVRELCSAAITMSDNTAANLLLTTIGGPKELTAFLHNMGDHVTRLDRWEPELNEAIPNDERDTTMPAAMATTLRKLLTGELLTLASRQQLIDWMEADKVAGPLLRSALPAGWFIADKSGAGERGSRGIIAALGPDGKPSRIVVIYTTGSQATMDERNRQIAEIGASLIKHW
T5 sequence (Q9EXV5 entry or part of it): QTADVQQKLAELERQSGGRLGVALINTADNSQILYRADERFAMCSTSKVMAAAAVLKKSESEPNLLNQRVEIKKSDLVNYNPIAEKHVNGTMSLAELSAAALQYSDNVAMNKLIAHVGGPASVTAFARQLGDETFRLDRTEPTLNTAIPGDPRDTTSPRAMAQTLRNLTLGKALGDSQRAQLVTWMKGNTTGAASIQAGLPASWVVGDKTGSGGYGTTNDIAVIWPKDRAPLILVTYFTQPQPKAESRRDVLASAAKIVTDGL

By IC50 is commonly meant the concentration that inhibits the measured activity by half. For orientation: MIC means the smallest concentration in the dilution series that meets the test's criterion for growth inhibition. For the molecule `COc1ncc(C2=CCN3CC2N(OS(=O)(=O)[O-])C3=O)cn1.[Na+]` (centres unmarked) [Example 24, Sodium [4-(2-methoxypyrimidin-5-yl)-7-oxo-1,6-diazabicyclo[3.2.1]oct-3-en-6-yl] sulfate], the IC50 against OXA-15 turned out to be 0.048 µM; at KPC-2, 0.16 µM; on AmpC (P99), 1.1 µM; on OXA-48, 0.0036 µM; against OXA-11, 1.2 µM; against AmpC P. aeruginosa, 1.4 µM. Also, the IC50 at CTX-M-15 came to 0.014 µM; against TEM-1, 0.012 µM; at OXA-1, 0.38 µM; at SHV-1, 0.02 µM. Moreover, the MIC in [1] was over 32 µg/mL; in assay [2], 16 µg/mL; in assay [3], over 32 µg/mL; in the assay with E. cloacae P99 (AmpC), over 32 µg/mL; in assay [4] it was over 32 µg/mL; in assay [5], over 32 µg/mL. In the assay on E. coli RGN238 (OXA-1), the MIC was over 32 µg/mL.
As to `O=C1N2CC(c3nc4ccccc4s3)=CC(C2)N1OS(=O)(=O)[O-].[Na+]` (centres unmarked) [Example 27, Sodium [3-(1,3-benzothiazol-2-yl)-7-oxo-1,6-diazabicyclo[3.2.1]oct-3-en-6-yl] sulfate], the IC50 was determined as 0.099 µM against OXA-15; 0.0027 µM at KPC-2; 0.0091 µM against AmpC (P99); 0.0064 µM at OXA-48; 0.15 µM against OXA-11; 0.068 µM at AmpC P. aeruginosa. Also, the IC50 at CTX-M-15 turned out to be 0.0014 µM; against TEM-1 it was 0.00021 µM; on OXA-1, 0.56 µM; at SHV-1 it was 0.0021 µM. Further, the MIC (in [1]; in assay [2]; in assay [3]; in the assay with E. cloacae P99 (AmpC); in assay [4]; in assay [5]) was over 32 µg/mL throughout. Moreover, the MIC with E. coli RGN238 (OXA-1) was over 32 µg/mL.
For the molecule `Cn1cc(C2=CC3CN(C2)C(=O)N3OS(=O)(=O)[O-])ccc1=O.[Na+]` (centres unmarked) [Example 28, Sodium [3-(1-methyl-6-oxo-3-pyridyl)-7-oxo-1,6-diazabicyclo[3.2.1]oct-3-en-6-yl] sulfate], the IC50 at OXA-15 was 0.018 µM; at KPC-2 it was 0.0065 µM; against AmpC (P99) it was 0.077 µM; at OXA-48 it was 0.054 µM; against OXA-11, 0.43 µM; against AmpC P. aeruginosa, 0.52 µM. The IC50 on CTX-M-15 worked out at 0.0044 µM; at TEM-1, 0.0016 µM; on OXA-1, 1 µM; on SHV-1, 0.0038 µM. The MIC (in [1]; in assay [2]; in assay [3]; in the assay with E. cloacae P99 (AmpC); in assay [4]; in assay [5]) was over 32 µg/mL each time. Moreover, in the assay on E. coli RGN238 (OXA-1), the MIC is over 32 µg/mL.
As for `O=C1N2CC=C(c3cnsc3)C(C2)N1OS(=O)(=O)[O-].[Na+]` (centres unmarked) [Example 29, Sodium [4-(isothiazol-4-yl)-7-oxo-1,6-diazabicyclo[3.2.1]oct-3-en-6-yl] sulfate], the IC50 amounted to 0.091 µM against OXA-15; 0.15 µM at KPC-2; 0.95 µM against AmpC (P99); 0.0028 µM on OXA-48; 1.7 µM against OXA-11; 1.2 µM against AmpC P. aeruginosa. Also, the IC50 on CTX-M-15 came to 0.0058 µM; at TEM-1 it was 0.011 µM; at OXA-1, 0.33 µM; against SHV-1, 0.02 µM. Also, the MIC (in assay [1]; in assay [2]; in [3]; with E. cloacae P99 (AmpC); in [4]; in assay [5]) was over 32 µg/mL in each case. Also, in the assay with E. coli RGN238 (OXA-1), the MIC was over 32 µg/mL.
